Laboratory results reported in patent publication US8017606B2, “Quinoline derivatives as antibacterial agents” (Janssen Pharmaceutica NV, priority 2005, dated 2011).
Values after ≈ are worked out from the molar mass of the structure shown.

Assays:
Test in all cases: Microtitre plate assay, IC90 determination
Format in all cases: cell-based
[1] = test system: Bacillus subtilis (ATCC43639); settings: 90% inhibitory concentration for bacterial growth, 37° C., resazurin fluorescence, read-out: IC90 (μg/ml) BSU 43639
Method: (§1) The bacteria used in this study were grown overnight in flasks containing 100 ml Mueller-Hinton Broth (Becton Dickinson—cat. no. 275730) in sterile de-ionized water, with shaking, at 37° C. Stocks (0.5 ml/tube) were stored at −70° C. until use. Bacteria titrations were performed in microtiter plates and colony forming units (CFUs) were determined. In general, an inoculum level of approximately 100 CFUs was used for susceptibility testing.
(§2) Anti Bacterial Susceptibility Testing: IC90 Determination
(§3) Flat-bottom, sterile 96-well plastic microtiter plates were filled with 180 μl of sterile deionized water, supplemented with 0.25% BSA. Subsequently, stock solutions (7.8×final test concentration) of compounds were added in 45 μl volumes in column 2 Serial five-fold dilutions (45 μl in 180 μl) were made directly in the microtiter plates from column 2 to reach column 11. Untreated control samples with (column 1) and without (column 12) inoculum were included in each microtiter plate. Depending on the bacteria type, approximately 10 to 60 CFU per well of bacteria inoculum (100 TCID50), in a volume of 100 μl in 2.8× Mueller-Hinton broth medium, was added to the rows A to H, except column 12. The same volume of broth medium without inoculum was added to column 12 in row A to H. The cultures were incubated at 37° C. for 24 hours under a normal atmosphere (incubator with open air valve and continuous ventilation). At the end of incubation, one day after inoculation, the bacterial growth was quantitated fluorometrically. Therefore resazurin (0.6 mg/ml) was added in a volume of 20 μl to all wells […], and the plates were re-incubated overnight. A change in colour from blue to pink indicated the growth of bacteria.
(§4) The fluorescence was read in a computer-controlled fluorometer (Cytofluor Biosearch) at an excitation wavelength of 530 nm and an emission wavelength of 590 nm. The % growth inhibition achieved by the compounds was calculated according to standard methods. The IC90 (expressed in μg/ml) was defined as the 90% inhibitory concentration for bacterial growth.

[2] = test system: Listeria monocytogenes (ATCC49594); settings: 90% inhibitory concentration for bacterial growth, 37° C., resazurin fluorescence, read-out: IC90 (μg/ml) LMO 49594
Method: as §1, §2, §3, §4

[3] = test system: methicilline resistant Staphylococcus aureus (MRSA) (a clinical isolate from the University of Antwerp); settings: 90% inhibitory concentration for bacterial growth, 37° C., resazurin fluorescence, read-out: IC90 (μg/ml) STA RMETHIC
Method: as §1, §2, §3, §4

[4] = test system: Enterococcus faecalis (ATCC29212); settings: 90% inhibitory concentration for bacterial growth, 37° C., resazurin fluorescence, read-out: IC90 (μg/ml) EFA 29212
Method: as §1, §2, §3, §4

[5] = test system: Streptococcus pyogens (ATCC8668); settings: 90% inhibitory concentration for bacterial growth, 37° C., resazurin fluorescence, read-out: IC90 (μg/ml) SPY 8668
Method: as §1, §2, §3, §4

[6] = test system: Streptococcus pneumoniae (ATCC6305); settings: 90% inhibitory concentration for bacterial growth, 37° C., resazurin fluorescence, read-out: IC90 (μg/ml) SPN 6305
Method: as §1, §2, §3, §4

[7] = test system: Staphylococcus aureus (ATCC25923); settings: 90% inhibitory concentration for bacterial growth, 37° C., resazurin fluorescence, read-out: IC90 (μg/ml) STA 25923
Method: as §1, §2, §3, §4

[8] = test system: Streptococcus mutans (ATCC33402); settings: 90% inhibitory concentration for bacterial growth, 37° C., resazurin fluorescence, read-out: IC90 (μg/ml) SMU 33402
Method: as §1, §2, §3, §4

[9] = test system: Pseudomonas aeruginosa (ATCC27853); settings: 90% inhibitory concentration for bacterial growth, 37° C., resazurin fluorescence, read-out: IC90 (μg/ml) PAE 27853
Method: as §1, §2, §3, §4

[10] = test system: Staphylococcus aureus (ATCC29213); settings: 90% inhibitory concentration for bacterial growth, 37° C., resazurin fluorescence, read-out: IC90 (μg/ml) STA 29213
Method: as §1, §2, §3, §4

[11] = test system: Enterococcus faecalis (ATCC14506); settings: 90% inhibitory concentration for bacterial growth, 37° C., resazurin fluorescence, read-out: IC90 (μg/ml) EFA 14506
Method: as §1, §2, §3, §4

SMILES	IC90 [1] [µg/mL]	IC90 [2] [µg/mL]	IC90 [4] [µg/mL]	IC90 [5] [µg/mL]	IC90 [6] [µg/mL]	IC90 [7] [µg/mL]	IC90 [8] [µg/mL]	IC90 [9] [µg/mL]	IC90 [10] [µg/mL]	IC90 [11] [µg/mL]	IC90 [3] [µg/mL]
COc1nc2ccccc2c(CC(O)(CCN(C)C)c2cccc3ccccc23)c1Cc1ccccc1 (stereo not shown) [Compound 70]	12.3 (≈ 25.1 µM)	39 (≈ 79.5 µM)	49.1 (≈ 100 µM)	9.8 (≈ 20 µM)	12.3 (≈ 25.1 µM)	12.3 (≈ 25.1 µM)	9.8 (≈ 20 µM)	9.8 (≈ 20 µM)	12.3 (≈ 25.1 µM)	–	12.3 (≈ 25.1 µM)
COc1nc2cccc(C(O)(CCN(C)C)c3ccccc3)c2cc1-c1ccccc1 (stereo not shown) [Compound 4]	10.4 (≈ 25.2 µM)	10.4 (≈ 25.2 µM)	10.4 (≈ 25.2 µM)	10.4 (≈ 25.2 µM)	10.4 (≈ 25.2 µM)	10.4 (≈ 25.2 µM)	–	10.4 (≈ 25.2 µM)	10.4 (≈ 25.2 µM)	–	10.4 (≈ 25.2 µM)
CN(C)CCC(O)(c1cccc2ccccc12)c1cc(Br)cc2cc(Cc3ccccc3)c(N3CCN(c4n[nH]c5ccccc45)CC3)nc12 (stereo not shown) [Compound 26]	14.5 (≈ 20 µM)	3.6 (≈ 4.96 µM)	3.6 (≈ 4.96 µM)	2.9 (≈ 4 µM)	3.6 (≈ 4.96 µM)	7.3 (≈ 10.1 µM)	2.9 (≈ 4 µM)	2.9 (≈ 4 µM)	16.3 (≈ 22.5 µM)	14.5 (≈ 20 µM)	18.2 (≈ 25.1 µM)
COc1nc2cccc(C(O)(CCN(C)C)c3cc(F)cc(F)c3)c2cc1-c1ccccc1 (stereo not shown) [Compound 1]	11.3 (≈ 25.2 µM)	11.3 (≈ 25.2 µM)	11.3 (≈ 25.2 µM)	9 (≈ 20.1 µM)	11.3 (≈ 25.2 µM)	11.3 (≈ 25.2 µM)	9 (≈ 20.1 µM)	11.3 (≈ 25.2 µM)	11.3 (≈ 25.2 µM)	11.3 (≈ 25.2 µM)	11.3 (≈ 25.2 µM)
COc1nc2c(C(O)(CCN(C)C)c3cccs3)cc(-c3cccnc3)cc2cc1Cc1ccccc1 (stereo not shown) [Compound 67]	51 (≈ 100 µM)	51 (≈ 100 µM)	51 (≈ 100 µM)	51 (≈ 100 µM)	22.8 (≈ 44.7 µM)	51 (≈ 100 µM)	–	51 (≈ 100 µM)	51 (≈ 100 µM)	–	51 (≈ 100 µM)
COc1nc2c(C(O)(CCN(C)C)c3cc(F)cc(F)c3)cc(-c3cccnc3)cc2cc1-c1ccccc1 (stereo not shown) [Compound 64]	8.3 (≈ 15.8 µM)	13.2 (≈ 25.1 µM)	13.2 (≈ 25.1 µM)	2.1 (≈ 4 µM)	10.5 (≈ 20 µM)	6.6 (≈ 12.6 µM)	2.1 (≈ 4 µM)	13.2 (≈ 25.1 µM)	8.3 (≈ 15.8 µM)	10.5 (≈ 20 µM)	11.8 (≈ 22.5 µM)
CN(C)CCC(O)(c1cc(F)cc(F)c1)c1ccc2nc(-c3cccnc3)cc(-c3ccccc3)c2c1 (stereo not shown) [Compound 42]	12.5 (≈ 25.2 µM)	39.4 (≈ 79.5 µM)	12.5 (≈ 25.2 µM)	12.5 (≈ 25.2 µM)	12.5 (≈ 25.2 µM)	9.9 (≈ 20 µM)	–	12.5 (≈ 25.2 µM)	39.4 (≈ 79.5 µM)	–	49.6 (≈ 100 µM)

More lines, main results first:

IC90 [1] [µg/mL]	IC90 [2] [µg/mL]	IC90 [4] [µg/mL]	IC90 [5] [µg/mL]	IC90 [6] [µg/mL]	IC90 [7] [µg/mL]	IC90 [8] [µg/mL]	IC90 [9] [µg/mL]	IC90 [10] [µg/mL]	IC90 [11] [µg/mL]	SMILES	IC90 [3] [µg/mL]
10.1 (≈ 25.1 µM)	10.1 (≈ 25.1 µM)	10.1 (≈ 25.1 µM)	10.1 (≈ 25.1 µM)	10.1 (≈ 25.1 µM)	10.1 (≈ 25.1 µM)	–	10.1 (≈ 25.1 µM)	10.1 (≈ 25.1 µM)	–	COc1cc(-c2ccccc2)c2cc(C(O)(CCN(C)C)c3ccco3)ccc2n1 (stereo not shown) [Compound 15]	10.1 (≈ 25.1 µM)
10.4 (≈ 25.1 µM)	10.4 (≈ 25.1 µM)	10.4 (≈ 25.1 µM)	10.4 (≈ 25.1 µM)	10.4 (≈ 25.1 µM)	10.4 (≈ 25.1 µM)	–	10.4 (≈ 25.1 µM)	10.4 (≈ 25.1 µM)	–	COc1cc(-c2ccccc2)c2cc(C(O)(CCN(C)C)c3ccccn3)ccc2n1 (stereo not shown) [Compound 16]	10.4 (≈ 25.1 µM)
10.4 (≈ 25.2 µM)	10.4 (≈ 25.2 µM)	10.4 (≈ 25.2 µM)	10.4 (≈ 25.2 µM)	10.4 (≈ 25.2 µM)	10.4 (≈ 25.2 µM)	–	10.4 (≈ 25.2 µM)	10.4 (≈ 25.2 µM)	–	COc1cc(-c2ccccc2)c2cc(C(O)(CCN(C)C)c3ccccc3)ccc2n1 (stereo not shown) [Compound 14]	10.4 (≈ 25.2 µM)
11.3 (≈ 25.2 µM)	11.3 (≈ 25.2 µM)	11.3 (≈ 25.2 µM)	9 (≈ 20.1 µM)	11.3 (≈ 25.2 µM)	11.3 (≈ 25.2 µM)	–	11.3 (≈ 25.2 µM)	11.3 (≈ 25.2 µM)	–	COc1cc(-c2ccccc2)c2cc(C(O)(CCN(C)C)c3cc(F)cc(F)c3)ccc2n1 (stereo not shown) [Compound 11]	11.3 (≈ 25.2 µM)
